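Protocol summary: plate cells (96-well), add compound at 5 concentrations, incubate 48 h, interpolate endpoints linearly. Here, GI50 denotes the concentration required for 50% inhibition of growth. TGI is the concentration that stops growth completely.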
Columns and labels:
Assay in all cases: NCI tumour cell line growth inhibition, 48 h
CAKI-1 renal = test system: CAKI-1 renal
SK-OV-3 ovarian = test system: SK-OV-3 ovarian
CCRF-CEM leukemia = test system: CCRF-CEM leukemia
EKVX NSCLC = test system: EKVX NSCLC
UACC-257 melanoma = test system: UACC-257 melanoma
HS 578T breast = test system: HS 578T breast
NCI-H226 lung = test system: NCI-H226 lung
HOP-62 NSCLC = test system: HOP-62 NSCLC
SF-295 CNS = test system: SF-295 CNS
SK-MEL-28 melanoma = test system: SK-MEL-28 melanoma
M14 melanoma = test system: M14 melanoma
TK-10 renal = test system: TK-10 renal
KM12 colon = test system: KM12 colon
SR leukemia = test system: SR leukemia
HCT-116 colon = test system: HCT-116 colon
MDA-MB-435 = test system: MDA-MB-435
SNB-75 CNS = test system: SNB-75 CNS
NCI-H460 lung = test system: NCI-H460 lung
MOLT-4 leukemia = test system: MOLT-4 leukemia
HOP-92 NSCLC = test system: HOP-92 NSCLC
HL-60(TB) leukemia = test system: HL-60(TB) leukemia
SK-MEL-5 melanoma = test system: SK-MEL-5 melanoma
A549 NSCLC = test system: A549 NSCLC
RPMI-8226 leukemia = test system: RPMI-8226 leukemia
UO-31 renal = test system: UO-31 renal
OVCAR-5 ovarian = test system: OVCAR-5 ovarian
HCC-2998 colon = test system: HCC-2998 colon
LOX IMVI melanoma = test system: LOX IMVI melanoma
SW-620 colon = test system: SW-620 colon
T-47D breast = test system: T-47D breast
K-562 leukemia = test system: K-562 leukemia
RXF 393 renal = test system: RXF 393 renal
COLO 205 colon = test system: COLO 205 colon
786-0 renal = test system: 786-0 renal
SF-539 CNS = test system: SF-539 CNS
MDA-MB-231 breast = test system: MDA-MB-231 breast
HT29 colon = test system: HT29 colon
U251 CNS = test system: U251 CNS
UACC-62 melanoma = test system: UACC-62 melanoma
IGROV1 ovarian = test system: IGROV1 ovarian
NCI-H23 lung = test system: NCI-H23 lung
SN12C renal = test system: SN12C renal
OVCAR-3 ovarian = test system: OVCAR-3 ovarian
OVCAR-4 ovarian = test system: OVCAR-4 ovarian
MCF7 breast = test system: MCF7 breast
ACHN renal = test system: ACHN renal
SF-268 CNS = test system: SF-268 CNS
DU-145 prostate = test system: DU-145 prostate
HCT-15 colon = test system: HCT-15 colon
NCI-H522 lung = test system: NCI-H522 lung
PC-3 prostate = test system: PC-3 prostate
NCI/ADR-RES ovarian = test system: NCI/ADR-RES ovarian
SNB-19 CNS = test system: SNB-19 CNS
SK-MEL-2 melanoma = test system: SK-MEL-2 melanoma
BT-549 breast = test system: BT-549 breast
OVCAR-8 ovarian = test system: OVCAR-8 ovarian

COc1ccc(-c2nnc(Nc3nc(O)c(C4=c5cc(OC(F)(F)F)ccc5=NC4=O)s3)o2)cc1
GI50 (CAKI-1 renal): 12.4 µM
TGI (CAKI-1 renal): 69.2 µM
GI50 (SK-OV-3 ovarian): 17.4 µM
TGI (SK-OV-3 ovarian): 44 µM
GI50 (CCRF-CEM leukemia): 25.5 µM
TGI (CCRF-CEM leukemia): 51.1 µM
GI50 (EKVX NSCLC): 31.6 µM
TGI (EKVX NSCLC): 71.7 µM
GI50 (UACC-257 melanoma): 13.2 µM
TGI (UACC-257 melanoma): 35.9 µM
GI50 (HS 578T breast): 38.3 µM
TGI (HS 578T breast): > 100 µM
GI50 (NCI-H226 lung): 17.4 µM
TGI (NCI-H226 lung): 38.1 µM
GI50 (HOP-62 NSCLC): 15.7 µM
TGI (HOP-62 NSCLC): 30.3 µM
GI50 (SF-295 CNS): 6.12 µM
TGI (SF-295 CNS): > 100 µM
GI50 (SK-MEL-28 melanoma): 17.8 µM
TGI (SK-MEL-28 melanoma): > 100 µM
GI50 (M14 melanoma): 8.76 µM
TGI (M14 melanoma): 28.5 µM
GI50 (TK-10 renal): 20.5 µM
TGI (TK-10 renal): 58.2 µM
GI50 (KM12 colon): 3.75 µM
TGI (KM12 colon): 19.6 µM
GI50 (SR leukemia): 9 µM
TGI (SR leukemia): 34.2 µM
GI50 (HCT-116 colon): 12.5 µM
TGI (HCT-116 colon): 25.4 µM
GI50 (MDA-MB-435): 7.46 µM
TGI (MDA-MB-435): > 100 µM
GI50 (SNB-75 CNS): 15.3 µM
TGI (SNB-75 CNS): 36.8 µM
GI50 (NCI-H460 lung): 22 µM
TGI (NCI-H460 lung): > 100 µM
GI50 (MOLT-4 leukemia): 18.5 µM
TGI (MOLT-4 leukemia): 49.3 µM
GI50 (HOP-92 NSCLC): 15.7 µM
TGI (HOP-92 NSCLC): 43.5 µM
GI50 (HL-60(TB) leukemia): 26.6 µM
TGI (HL-60(TB) leukemia): 47.7 µM
GI50 (SK-MEL-5 melanoma): 17.7 µM
TGI (SK-MEL-5 melanoma): 42.9 µM
GI50 (A549 NSCLC): 17.2 µM
TGI (A549 NSCLC): 81.4 µM
GI50 (RPMI-8226 leukemia): 14.2 µM
TGI (RPMI-8226 leukemia): 37.2 µM
GI50 (UO-31 renal): 21.9 µM
TGI (UO-31 renal): 54.3 µM
GI50 (OVCAR-5 ovarian): 18.2 µM
TGI (OVCAR-5 ovarian): 43.6 µM
GI50 (HCC-2998 colon): 13.4 µM
TGI (HCC-2998 colon): 28.6 µM
GI50 (LOX IMVI melanoma): 16.3 µM
TGI (LOX IMVI melanoma): 56.1 µM
GI50 (SW-620 colon): 38.2 µM
TGI (SW-620 colon): > 100 µM
GI50 (T-47D breast): 69.8 µM
TGI (T-47D breast): > 100 µM
GI50 (K-562 leukemia): 14.4 µM
TGI (K-562 leukemia): 30.4 µM
GI50 (RXF 393 renal): 13.9 µM
TGI (RXF 393 renal): 29.1 µM
GI50 (COLO 205 colon): 25.4 µM
TGI (COLO 205 colon): > 100 µM
GI50 (786-0 renal): 11.2 µM
TGI (786-0 renal): 24.3 µM
GI50 (SF-539 CNS): 16.2 µM
TGI (SF-539 CNS): 30.7 µM
GI50 (MDA-MB-231 breast): 13.9 µM
TGI (MDA-MB-231 breast): 30.3 µM
GI50 (HT29 colon): 71.4 µM
TGI (HT29 colon): > 100 µM
GI50 (U251 CNS): 12.4 µM
TGI (U251 CNS): 30.7 µM
GI50 (UACC-62 melanoma): 15.1 µM
TGI (UACC-62 melanoma): 29.5 µM
GI50 (IGROV1 ovarian): 22 µM
TGI (IGROV1 ovarian): 60.7 µM
GI50 (NCI-H23 lung): 14.1 µM
TGI (NCI-H23 lung): 30.6 µM
GI50 (SN12C renal): 16.5 µM
TGI (SN12C renal): 40.5 µM
GI50 (OVCAR-3 ovarian): 5.75 µM
TGI (OVCAR-3 ovarian): 90.8 µM
GI50 (OVCAR-4 ovarian): 46.3 µM
TGI (OVCAR-4 ovarian): > 100 µM
GI50 (MCF7 breast): 39.7 µM
TGI (MCF7 breast): > 100 µM
GI50 (ACHN renal): 22.3 µM
TGI (ACHN renal): > 100 µM
GI50 (SF-268 CNS): > 100 µM
TGI (SF-268 CNS): > 100 µM
GI50 (DU-145 prostate): 23.4 µM
TGI (DU-145 prostate): 87.1 µM
GI50 (HCT-15 colon): 20.4 µM
TGI (HCT-15 colon): 80.4 µM
GI50 (NCI-H522 lung): 32.4 µM
TGI (NCI-H522 lung): > 100 µM
GI50 (PC-3 prostate): 19.9 µM
TGI (PC-3 prostate): 57.5 µM
GI50 (NCI/ADR-RES ovarian): 20.2 µM
TGI (NCI/ADR-RES ovarian): 75.4 µM
GI50 (SNB-19 CNS): 9.67 µM
TGI (SNB-19 CNS): 31.2 µM
GI50 (SK-MEL-2 melanoma): 20.3 µM
TGI (SK-MEL-2 melanoma): 39.3 µM
GI50 (BT-549 breast): 19.7 µM
TGI (BT-549 breast): 37.7 µM
GI50 (OVCAR-8 ovarian): 22.7 µM
TGI (OVCAR-8 ovarian): 99.5 µM
